Test results taken from ChEMBL document CHEMBL4823282, “Novel Broad-Spectrum Antimicrobial Peptide Derived from Anoplin and Its Activity on Bacterial Pneumonia in Mice” (J Med Chem, 2021).
≈ marks a conversion by molar mass, not a printed value. Calls of active or inactive are those of the source. No cut-off for these calls is given here. Where a SMILES comes first, the peptide text is derived from it.

Legend:
Acinetobacter baumannii = assay: Antibacterial activity against Acinetobacter baumannii ATCC 19606 incubated for 18 hrs by CLSI based broth dilution method; type: functional; conditions: ATCC 19606 = CIP 70.34 = JCM 6841
Fungi = assay: Antibacterial activity against fungi incubated for 18 hrs by CLSI based broth dilution method; type: functional
Bacteria [1] = assay: Antibacterial activity against bacteria incubated for 18 hrs by CLSI based broth dilution method; type: functional
[2] = Selectivity ratio of MHC10 for BALB/C mouse erythrocytes to MIC for bacteria; type: toxicity
Escherichia coli [3] = assay: Antibiofilm activity against Escherichia coli ATCC 25922 at 4 times MIC incubated for 24 hrs by crystal violet staining based assay; type: functional, organism-based
Klebsiella pneumoniae [4] = assay: Antibacterial activity against Klebsiella pneumoniae ATCC 700603 incubated with 0.02 ug/ml chymotrypsin for 6 hrs followed by bacterial addition and measured after 18 hrs by CLSI based broth dilution method; type: functional, organism-based; conditions: dose 0.02 µg/ml, time 23.0 hrs
Enterococcus faecalis = assay: Antibacterial activity against Enterococcus faecalis ATCC 29212 incubated for 18 hrs by CLSI based broth dilution method; type: functional
Staphylococcus aureus [5] = assay: Antibacterial activity against Staphylococcus aureus ATCC 25923 incubated with 0.02 ug/ml trypsin for 6 hrs followed by bacterial addition and measured after 18 hrs by CLSI based broth dilution method; type: functional, organism-based; conditions: dose 0.02 µg/ml, time 23.0 hrs
[6] = Selectivity ratio of MHC10 for BALB/C mouse erythrocytes to MIC for gram positive bacteria; type: toxicity
Bacteria [7] = assay: Antibacterial activity against Gram-negative bacteria incubated for 18 hrs by CLSI based broth dilution method; type: functional
[8] = Selectivity ratio of MHC10 for BALB/C mouse erythrocytes to MIC for fungi; type: toxicity
Klebsiella pneumoniae [9] = assay: Antibacterial activity against Klebsiella pneumoniae ATCC 700603 incubated with 0.02 ug/ml trypsin for 6 hrs followed by bacterial addition and measured after 18 hrs by CLSI based broth dilution method; type: functional, organism-based; conditions: dose 0.02 µg/ml, time 23.0 hrs
Klebsiella pneumoniae [10] = assay: Antibacterial activity against Klebsiella pneumoniae ATCC 700603 incubated for 18 hrs by CLSI based broth dilution method; type: functional
Staphylococcus aureus [11] = assay: Antibacterial activity against Staphylococcus aureus ATCC 25923 at 0.5 to 1 times MIC incubated for 24 hrs by crystal violet staining based assay; type: functional, organism-based
[12] = Selectivity ratio of MHC10 for BALB/C mouse erythrocytes to MIC for gram-negative bacteria; type: toxicity
Klebsiella pneumoniae [13] = assay: Antibiofilm activity against Klebsiella pneumoniae ATCC 700603 at 2 to 4 times MIC incubated for 24 hrs by crystal violet staining based assay; type: functional, organism-based
Staphylococcus aureus [14] = assay: Antibacterial activity against Staphylococcus aureus ATCC 25923 incubated with 0.02 ug/ml chymotrypsin for 6 hrs followed by bacterial addition and measured after 18 hrs by CLSI based broth dilution method; type: functional, organism-based; conditions: dose 0.02 µg/ml, time 23.0 hrs
Bacteria [15] = assay: Antibacterial activity against Gram-positive bacteria incubated for 18 hrs by CLSI based broth dilution method; type: functional
Erythrocyte = assay: Hemolytic activity in BALB/C mouse erythrocytes incubated for 1 hr by absorbance method; type: ADME, cell-based
Bacillus subtilis = assay: Antibacterial activity against Bacillus subtilis ATCC 23857 incubated for 18 hrs by CLSI based broth dilution method; type: functional
Escherichia coli [16] = assay: Antibacterial activity against Escherichia coli ATCC 25922 incubated for 18 hrs by CLSI based broth dilution method; type: functional
Pseudomonas aeruginosa [17] = assay: Antibacterial activity against Pseudomonas aeruginosa ATCC 27853 incubated for 18 hrs by CLSI based broth dilution method; type: functional
Pseudomonas aeruginosa [18] = assay: Antibacterial activity against gentamicin-resistant Pseudomonas aeruginosa ATCC 27853 incubated for 18 hrs in presence of EDTA by CLSI based broth dilution method; type: functional, organism-based
Staphylococcus aureus [19] = assay: Antibacterial activity against Staphylococcus aureus ATCC 25923 incubated for 18 hrs by CLSI based broth dilution method; type: functional
[20] = tested on: Staphylococcus epidermidis; assay: Antibacterial activity against Staphylococcus epidermidis ATCC 12228 incubated for 18 hrs by CLSI based broth dilution method; type: functional
Pseudomonas aeruginosa [21] = assay: Antibacterial activity against gentamicin-resistant Pseudomonas aeruginosa ATCC 27853 incubated for 18 hrs by CLSI based broth dilution method; type: functional
Pseudomonas aeruginosa [22] = assay: Antibacterial activity against rifampin-resistant Pseudomonas aeruginosa ATCC 27853 incubated for 18 hrs by CLSI based broth dilution method; type: functional
Staphylococcus aureus [23] = assay: Bactericidal activity against Staphylococcus aureus ATCC 25923 at 2MIC by time-kill assay; type: functional, organism-based; conditions: time 24.0 hrs, TDE = time-dependent effect
Klebsiella pneumoniae [24] = assay: Bactericidal activity against Klebsiella pneumoniae 700603 at 2MIC by time-kill assay relative to control; type: functional; conditions: 2M, TDE = time-dependent effect
Escherichia coli [25] = assay: Synergistic antibacterial activity against Escherichia coli ATCC 25922 at 2 times MIC incubated for 18 to 24 hrs in presence of 2 times MIC of gentamycin by broth microdilution assay based checkerboard assay; type: functional; conditions: time 18-24 hrs
Escherichia coli [26] = assay: Synergistic antibacterial activity against Escherichia coli ATCC 25922 at 2 times MIC incubated for 18 to 24 hrs in presence of 2 times MIC of rifampicin by broth microdilution assay based checkerboard assay; type: functional; conditions: time 18-24 hrs
[27] = Cytotoxicity against human glomerular mesangial cells incubated for 12 hrs by MTT assay; type: cell-based; conditions: Glomerular mesangial cell
Klebsiella pneumoniae [28] = assay: Synergistic antibacterial activity against Klebsiella pneumoniae ATCC 700603 at 2 times MIC incubated for 18 to 24 hrs in presence of 2 times MIC of rifampicin by broth microdilution assay based checkerboard assay; type: functional; conditions: time 18-24 hrs
Klebsiella pneumoniae [29] = assay: Synergistic antibacterial activity against Klebsiella pneumoniae ATCC 700603 at 2 times MIC incubated for 18 to 24 hrs in presence of 2 times MIC of polymyxin B by broth microdilution assay based checkerboard assay; type: functional; conditions: time 18-24 hrs
Pseudomonas aeruginosa [30] = assay: Synergistic antibacterial activity against Pseudomonas aeruginosa ATCC 27853 at 2 times MIC incubated for 18 to 24 hrs in presence of 2 times MIC of rifampicin by broth microdilution assay based checkerboard assay; type: functional; conditions: time 18-24 hrs
Pseudomonas aeruginosa [31] = assay: Synergistic antibacterial activity against Pseudomonas aeruginosa ATCC 27853 at 2 times MIC incubated for 18 to 24 hrs in presence of 2 times MIC of polymyxin B by broth microdilution assay based checkerboard assay; type: functional; conditions: time 18-24 hrs
Escherichia coli [32] = assay: Synergistic antibacterial activity against Escherichia coli ATCC 25922 at 2 times MIC incubated for 18 to 24 hrs in presence of 2 times MIC of polymyxin B by broth microdilution assay based checkerboard assay; type: functional; conditions: time 18-24 hrs
Klebsiella pneumoniae [33] = assay: Synergistic antibacterial activity against Klebsiella pneumoniae ATCC 700603 at 2 times MIC incubated for 18 to 24 hrs in presence of 2 times MIC of gentamycin by broth microdilution assay based checkerboard assay; type: functional; conditions: time 18-24 hrs

Row | Compound | MIC (Acinetobacter baumannii) [µM] | MIC (Fungi) [µM] | MIC (Bacteria [1]) [µM] | selectivity ratio [2] | MIC (Enterococcus faecalis) [µM] | selectivity ratio at 18 h [6] | MIC (Bacteria [7]) [µM] | selectivity ratio [8] | MIC (Klebsiella pneumoniae [10]) [µM] | selectivity ratio [12] | MIC (Bacteria [15]) [µM] | MHC10 (Erythrocyte) | MIC (Bacillus subtilis) [µM] | MIC (Escherichia coli [16]) [µM] | MIC (Pseudomonas aeruginosa [17]) [µM] | MIC (Staphylococcus aureus [19]) [µM] | MIC [20] [µM] | IC50 [27] [µM] | FIC (Pseudomonas aeruginosa [30]) | FIC (Pseudomonas aeruginosa [31]) | also measured
1 | CC[C@H](C)[C@H](NC(=O)CN)C(=O)NCC(=O)N[C@@H](C)C(=O)N[C@H](C(=O)N[C@@H](CC(C)C)C(=O)N[C@@H](CCCCN)C(=O)N[C@H](C(=O)N[C@@H](CC(C)C)C(=O)N[C@H](C(=O)N[C@H](C(=O)NCC(=O)N[C@@H](CC(C)C)C(=O)N1CCC[C@H]1C(=O)N[C@@H](C)C(=O)N[C@@H](CC(C)C)C(=O)N[C@H](C(=O)N[C@@H](CO)C(=O)N[C@@H](Cc1c[nH]c2ccccc12)C(=O)N[C@H](C(=O)N[C@@H](CCCCN)C(=O)N[C@@H](CCCNC(=N)N)C(=O)N[C@@H](CCCCN)C(=O)N[C@@H](CCCNC(=N)N)C(=O)N[C@@H](CCC(N)=O)C(=O)N[C@@H](CCC(N)=O)C(N)=O)[C@@H](C)CC)[C@@H](C)CC)[C@@H](C)O)[C@@H](C)O)C(C)C)C(C)C [MELITTIN] | 2 (≈ 5.69 µg/mL) | 4 (≈ 11.4 µg/mL) | 4 (≈ 11.4 µg/mL) | 57 | 4 (≈ 11.4 µg/mL) | 0.95 | 6.73 (≈ 19.2 µg/mL) | 57 | 16 (≈ 45.5 µg/mL) | 0.34 | 2.38 (≈ 6.77 µg/mL) | 2.26 µM |  |  |  |  |  |  |  |  | Activity (Escherichia coli [3]): Active; Activity (Klebsiella pneumoniae [4]): inactive; Activity (Staphylococcus aureus [5]): inactive; Activity (Klebsiella pneumoniae [9]): inactive; Activity (Staphylococcus aureus [11]): Active; Activity (Klebsiella pneumoniae [13]): Active; Activity (Staphylococcus aureus [14]): inactive
2 | GENTAMICIN | < 1 |  |  |  | 4 |  |  |  | 16 |  |  |  | < 1 | 4 | 4 | < 1 | < 1 |  |  |  | MIC (Pseudomonas aeruginosa [18]): 8 µM; MIC (Pseudomonas aeruginosa [21]): 64 µM; MIC (Pseudomonas aeruginosa [22]): 0.5 µM
3 | CN[C@H](CC(C)C)C(=O)N[C@H]1C(=O)N[C@@H](CC(N)=O)C(=O)N[C@H]2C(=O)N[C@H]3C(=O)N[C@H](C(=O)N[C@H](C(=O)O)c4cc(O)cc(O)c4-c4cc3ccc4O)[C@H](O)c3ccc(c(Cl)c3)Oc3cc2cc(c3O[C@@H]2O[C@H](CO)[C@@H](O)[C@H](O)[C@H]2O[C@H]2C[C@](C)(N)[C@H](O)[C@H](C)O2)Oc2ccc(cc2Cl)[C@H]1O [VANCOMYCIN] | < 1 |  |  |  | < 1 |  |  |  | ≥ 128 |  |  |  | < 1 | 64 (≈ 92.8 µg/mL) | 64 (≈ 92.8 µg/mL) | < 1 | < 1 |  |  |  | Activity (Staphylococcus aureus [23]): Tde; Activity (Klebsiella pneumoniae [24]): Tde
4 | CC(C)C[C@H](NC(=O)CN)C(=O)N[C@@H](Cc1c[nH]c2ccccc12)C(=O)N[C@@H](CCCCN)C(=O)N[C@@H](CCCNC(=N)N)C(=O)N[C@@H](Cc1c[nH]c2ccccc12)C(=O)N[C@@H](CCCCN)C(=O)N[C@@H](CCCCN)C(=O)N[C@@H](Cc1ccccc1)C(=O)N[C@@H](Cc1c[nH]c2ccccc12)C(N)=O (H-GLWKRWKKFW-NH2) | 16 (≈ 22.9 µg/mL) | 10.4 (≈ 14.9 µg/mL) | 10.4 (≈ 14.9 µg/mL) | 8.06 | 32 (≈ 45.9 µg/mL) | 6.19 | 8 (≈ 11.5 µg/mL) | 8.06 | 8 (≈ 11.5 µg/mL) | 10.4 | 13.5 (≈ 19.4 µg/mL) | 83.63 µM | 8 (≈ 11.5 µg/mL) | 8 (≈ 11.5 µg/mL) | 8 (≈ 11.5 µg/mL) | 8 (≈ 11.5 µg/mL) | 16 (≈ 22.9 µg/mL) | 39 | 0.3125 | 0.25 | FIC (Escherichia coli [25]): 0.5; FIC (Escherichia coli [26]): 0.5; FIC (Klebsiella pneumoniae [28]): 0.5625; FIC (Klebsiella pneumoniae [29]): 0.5625; FIC (Escherichia coli [32]): 0.3125; FIC (Klebsiella pneumoniae [33]): 0.75
5 | CC(C)C[C@H](NC(=O)[C@H](CC(C)C)NC(=O)[C@@H](NC(=O)[C@H](CCCCN)NC(=O)[C@H](Cc1c[nH]c2ccccc12)NC(=O)[C@H](CCCNC(=N)N)NC(=O)[C@H](CCCCN)NC(=O)[C@H](CC(C)C)NC(=O)[C@H](CC(C)C)NC(=O)CN)[C@@H](C)O)C(N)=O (H-GLLKRWKTLL-NH2) | 256 (≈ 314 µg/mL) | 64 (≈ 78.5 µg/mL) | 64 (≈ 78.5 µg/mL) | 8 | 256 (≈ 314 µg/mL) | 5.66 | 45.3 (≈ 55.6 µg/mL) | 8 | 64 (≈ 78.5 µg/mL) | 11.3 | 90.5 (≈ 111 µg/mL) | >= 512 uM | 128 (≈ 157 µg/mL) | 64 (≈ 78.5 µg/mL) | 64 (≈ 78.5 µg/mL) | 128 (≈ 157 µg/mL) | 16 (≈ 19.6 µg/mL) | ≥ 512 | 0.5625 | 0.3125 | 
